Assay [1] concerns the target T1, HCV NS3/4A protease complex (BMS strain, genotype 1a) (Hepatitis C virus genotype 1a, UniProt P27958, C1454S).
T1 construct: DNA encoding the recombinant HCV NS3/4A protease complex (amino acids 1027 to 1711) for these strains; inferred from the pET21b vector and Ni-NTA purification; made in house; host or cells: Escherichia coli BL21 (DE3), pET21b
The assay can be described thus: Recombinant HCV NS3/4A protease complex FRET peptide assay, BMS strain. The format is biochemical. The note with it: IC50 range, NS3/4A BMS Strain. In outline: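 Recombinant NS3/4A complex (aa 1027–1711) with C-terminal three-lysine tail, C1711G and C1454S, expressed in E. coli BL21(DE3) and purified by Ni-NTA then Superdex-S200. Inhibition of the complex from each strain measured in vitro by FRET peptide cleavage.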

The subject of assay [2] is HCV replicon in Huh7 cells. The assay can be described thus: HCV replicon cell-based assay (FRET). The note with it: Hepatitis C virus, Huh-7; HCV replicon; read-out: EC50 range. In outline:
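Huh7 cells stably carrying a genotype 1b HCV replicon (IRES-neo-EMCV-IRES-NS3-NS5B) were treated with compound for 4 days at 37 °C in 0.5% DMSO final. Lysates containing 10 μM FRET peptide RET S1 were read kinetically at 340/490 nm to give NS3 protease activity, from which EC50 was derived.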
(In general: In antiviral work, replicon cells carry a viral genome segment that copies itself.)

T1 sequence (P27958 1658-1714, looked up, stated change not applied): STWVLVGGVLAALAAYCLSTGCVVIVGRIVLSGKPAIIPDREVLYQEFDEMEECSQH
T1 sequence (P27958 1027-1657, looked up, stated change not applied): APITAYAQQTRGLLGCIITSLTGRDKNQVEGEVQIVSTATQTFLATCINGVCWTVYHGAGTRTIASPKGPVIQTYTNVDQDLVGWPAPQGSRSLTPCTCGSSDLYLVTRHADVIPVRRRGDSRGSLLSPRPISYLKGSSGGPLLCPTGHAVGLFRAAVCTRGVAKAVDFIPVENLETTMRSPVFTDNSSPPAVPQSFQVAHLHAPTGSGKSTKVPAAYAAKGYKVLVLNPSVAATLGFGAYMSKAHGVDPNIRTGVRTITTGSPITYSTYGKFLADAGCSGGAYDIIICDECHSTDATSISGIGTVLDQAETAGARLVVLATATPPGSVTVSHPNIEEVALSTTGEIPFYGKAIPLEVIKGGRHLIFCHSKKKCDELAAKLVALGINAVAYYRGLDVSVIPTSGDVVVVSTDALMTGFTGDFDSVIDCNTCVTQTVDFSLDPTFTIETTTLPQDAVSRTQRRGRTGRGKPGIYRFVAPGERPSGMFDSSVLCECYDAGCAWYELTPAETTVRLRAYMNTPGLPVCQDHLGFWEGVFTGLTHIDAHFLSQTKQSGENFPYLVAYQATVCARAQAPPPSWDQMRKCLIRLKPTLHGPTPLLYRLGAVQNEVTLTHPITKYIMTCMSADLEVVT

Turning to `C=C[C@@H]1C[C@]1(NC(=O)[C@@H]1C[C@@H](Oc2cc(-c3ccccc3)nc3cc(OC)ccc23)CN1C(=O)[C@@H](NC(=O)OC(C)(C)C)C(C)(C)C)C(=O)NS(=O)(=O)C1(Cc2cc(C)on2)CC1` [Compound 51, [1-(4-(7-Methoxy-2-phenyl-quinolin-4-yloxy)-2-{1-[1-(5-methyl-isoxazol-3-ylmethyl)-cyclopropanesulfonylaminocarbonyl]-2-vinyl-cyclopropylcarbamoyl}-pyrrolidine-1-carbonyl)-2,2-dimethyl-propyl]-carbamic acid tert-butyl ester], the 50% inhibitory concentration (IC50) in assay [1] was less than 50 nM. Also, in assay [2], the half-maximal effective concentration (EC50) is less than 50 nM.
`C=C[C@@H]1C[C@]1(NC(=O)[C@@H]1C[C@@H](Oc2cc(-c3ccccc3)nc3cc(OC)ccc23)CN1C(=O)[C@@H](NC(=O)OC(C)(C)C)C(C)C)C(=O)NS(=O)(=O)C1(CC2CC2)CC1` [Compound 52, {1-[2-[1-(1-Cyclopropylmethyl-cyclopropanesulfonylaminocarbonyl)-2-vinyl-cyclopropylcarbamoyl]-4-(7-methoxy-2-phenyl-quinolin-4-yloxy)-pyrrolidine-1-carbonyl]-2-methyl-propyl}-carbamic acid tert-butyl ester]: the IC50 in assay [1] is less than 50 nM. The EC50 in assay [2] was less than 50 nM.
As to `C=C[C@@H]1C[C@]1(NC(=O)[C@@H]1C[C@@H](Oc2cc(-c3ccccc3)nc3cc(OC)ccc23)CN1C(=O)[C@@H](NC(=O)OC(C)(C)C)C(C)C)C(=O)NS(=O)(=O)C1(CCOC)CC1` [Compound 53, {1-[2-{1-[1-(2-Methoxy-ethyl)-cyclopropanesulfonylaminocarbonyl]-2-vinyl-cyclopropylcarbamoyl}-4-(7-methoxy-2-phenyl-quinolin-4-yloxy)-pyrrolidine-1-carbonyl]-2-methyl-propyl}-carbamic acid tert-butyl ester], the IC50 in assay [1] was less than 50 nM. The EC50 in assay [2] is less than 50 nM.
Turning to `C=C[C@@H]1C[C@]1(NC(=O)[C@@H]1C[C@@H](Oc2cc(-c3ccccc3)nc3cc(OC)ccc23)CN1C(=O)[C@@H](NC(=O)OC(C)(C)C)C(C)C)C(=O)NS(=O)(=O)C1(COC)CC1` [Compound 54, {1-[2-[1-(1-Methoxymethyl-cyclopropanesulfonylaminocarbonyl)-2-vinyl-cyclopropylcarbamoyl]-4-(7-methoxy-2-phenyl-quinolin-4-yloxy)-pyrrolidine-1-carbonyl]-2-methyl-propyl]-carbamic acid tert-butyl ester], the IC50 in assay [1] was less than 50 nM. Also, the EC50 in assay [2] is less than 50 nM.
With `C=C[C@@H]1C[C@]1(NC(=O)[C@@H]1C[C@@H](Oc2cc(-c3ccccc3)nc3cc(OC)ccc23)CN1C(=O)[C@@H](NC(=O)OC1CCCC1)C(C)(C)C)C(=O)NS(=O)(=O)C1(Cc2ccccc2)CC1` [Compound 55, {1-[2-[1-(1-Benzyl-cycloprolanesulfonylaminocarbonyl)-2-vinyl-cycloproylcarbamoyl]-4-(7-methoxy-2-phenyl-quinolin-4-yloxy)-pyrrolidine-1-carbonyl]-2,2-dimethyl-propyl}-carbamic acid cyclopentyl ester], the half-inhibitory concentration (IC50) in assay [1] was less than 50 nM. Besides, in assay [2], the half-maximal effective concentration (EC50) was in the range of 50 to 500 nM.
Regarding `C=C[C@@H]1C[C@]1(NC(=O)[C@@H]1C[C@@H](Oc2cc(-c3ccccc3)nc3cc(OC)ccc23)CN1C(=O)[C@@H](NC(=O)OC1CCOCC1)C(C)(C)C)C(=O)NS(=O)(=O)C1(Cc2ccccc2)CC1` [Compound 56, {1-[2-[1-(1-Benzyl-cyclopropanesulfonylaminocarbonyl)-2-vinyl-cyclopropylcarbamoyl]-4-(7-methoxy-2-phenyl-quinolin-4-yloxy)-pyrrolidine-1-carbonyl]-2,2-dimethyl-propyl}-carbamic acid tetrahydro-pyran-4-yl Ester], the IC50 in assay [1] was less than 50 nM. Besides, the EC50 in assay [2] was in the range of 50 to 500 nM.
Taken in the same sequence, the figures for `C=C[C@@H]1C[C@]1(NC(=O)[C@@H]1C[C@@H](Oc2cc(-c3ccccc3)nc3cc(OC)ccc23)CN1C(=O)[C@@H](NC(=O)O[C@H]1CCOC1)C(C)(C)C)C(=O)NS(=O)(=O)C1(Cc2ccccc2)CC1` [Compound 57, {1-[2-[1-(1-Benzyl-cyclopropanesulfonylaminocarbonyl)-2-vinyl-cyclopropylcarbamoyl]-4-(7-methoxy-2-phenyl-quinolin-4-yloxy)-pyrrolidine-1-carbonyl]-2,2-dimethyl-propyl}-carbamic acid tetrahydro-furan-3-yl ester] were less than 50 nM and 50 to 500 nM.
Regarding `C=C[C@@H]1C[C@]1(NC(=O)[C@@H]1C[C@@H](Oc2cc(-c3ccccc3)nc3cc(OC)ccc23)CN1C(=O)[C@@H](NC(=O)CC1CC1)C(C)(C)C)C(=O)NS(=O)(=O)C1(Cc2ccccc2)CC1` [Compound 58, 1-[2-(2-Cyclopropyl-acetylamino)-3,3-dimethyl-butyryl]-4-(7-methoxy-2-phenyl-quinolin-4-yloxy)-pyrrolidine-2-carboxylic acid [1-(1-benzyl-cyclopropanesulfonylaminocarbonyl)-2-vinyl-cyclopropyl]-amide], the half-maximal inhibitory concentration (IC50) in assay [1] was less than 50 nM. The half-maximal effective concentration (EC50) in assay [2] fell in the range of 50 to 500 nM.
As to `C=C[C@@H]1C[C@]1(NC(=O)[C@@H]1C[C@@H](Oc2cc(-c3ccccc3)nc3cc(OC)ccc23)CN1C(=O)[C@@H](NC(=O)CC1CCOCC1)C(C)(C)C)C(=O)NS(=O)(=O)C1(Cc2ccccc2)CC1` [Compound 59, 1-[3,3-Dimethyl-2-(2-tetrahydro-pyran-4-yl-acetylamino)-butyryl]-4-(7-methoxy-2-phenyl-quinolin-4-yloxy)-pyrrolidine-2-carboxylic acid [1-(1-benzyl-cyclopropanesulfonylaminocarbonyl)-2-vinyl-cyclopropyl]-amide], the IC50 in assay [1] was less than 50 nM. In addition, in assay [2], the EC50 fell in the range of 50 to 500 nM.
Turning to `C=C[C@@H]1C[C@]1(NC(=O)[C@@H]1C[C@@H](Oc2cc(-c3ccccc3)nc3cc(OC)ccc23)CN1C(=O)[C@@H](NC(=O)C1CCOCC1)C(C)(C)C)C(=O)NS(=O)(=O)C1(Cc2ccccc2)CC1` [Compound 60, 1-{3,3-Dimethyl-2-[(tetrahydro-pyran-4-carbonyl)-amino]-butyryl}-4-(7-methoxy-2-phenyl-quinolin-4-yloxy)-pyrrolidine-2-carboxylic acid [1-(1-benzyl-cyclopropanesulfonylaminocarbonyl)-2-vinyl-cyclopropyl]-amide], in assay [1], the concentration for half-maximal inhibition (IC50) is less than 50 nM. The 50% effective concentration (EC50) in assay [2] is 500 to 5000 nM.
For the compound `C=C[C@@H]1C[C@]1(NC(=O)[C@@H]1C[C@@H](Oc2cc(-c3ccccc3)nc3cc(OC)ccc23)CN1C(=O)[C@@H](NC(=O)NCC)C(C)(C)C)C(=O)NS(=O)(=O)C1(Cc2ccccc2)CC1` [Compound 61, 1-[2-(3-Ethyl-ureido)-3,3-dimethyl-butyryl]-4-(7-methoxy-2-phenyl-quinolin-4-yloxy)-pyrrolidine-2-carboxylic acid [1-(1-benzyl-cyclopropanesulfonylaminocarbonyl)-2-vinyl-cyclopropyl]-amide], in assay [1], the half-inhibitory concentration (IC50) was less than 50 nM. The EC50 in assay [2] lay within 50 to 500 nM.
In the case of `C=C[C@@H]1C[C@]1(NC(=O)[C@@H]1C[C@@H](Oc2cc(-c3ccccc3)nc3cc(OC)ccc23)CN1C(=O)[C@@H](NC(=O)NC(C)(C)C)C(C)(C)C)C(=O)NS(=O)(=O)C1(Cc2ccccc2)CC1` [Compound 62, 1-[2-(3-tert-Butyl-ureido)-3,3-dimethyl-butyryl]-4-(7-methoxy-2-phenyl-quinolin-4-yloxy)-pyrrolidine-2-carboxylic acid [1-(1-benzylcyclopropanesulfonylaminocarbonyl)-2-vinyl-cyclopropyl]-amide], the IC50 in assay [1] is less than 50 nM. In addition, the EC50 in assay [2] is 50 to 500 nM.
For the compound `C=C[C@@H]1C[C@]1(NC(=O)[C@@H]1C[C@@H](Oc2ccnc3cc(Cl)ccc23)CN1C(=O)[C@@H](NC(=O)OC1CCCC1)C(C)(C)C)C(=O)NS(=O)(=O)C1(C)CC1` [Compound 63, (1-{4-(7-Chloro-quinolin-4-yloxy)-2-[1-(1-methyl-cyclopropanesulfonylaminocarbonyl)-2-vinyl-cyclopropylcarbamoyl]-pyrrolidine-1-carbonyl}-2,2-dimethyl-propyl)-carbamic acid cyclopentyl ester], the IC50 in assay [1] is less than 50 nM. Further, in assay [2], the half-maximal effective concentration (EC50) is less than 50 nM.
In the case of `C=C[C@@H]1C[C@]1(NC(=O)[C@@H]1C[C@@H](Oc2ccnc3cc(Cl)ccc23)CN1C(=O)[C@@H](NC(=O)OC1CCCC1)C(C)(C)C)C(=O)NS(=O)(=O)C1(CCC)CC1` [Compound 64, (1-{4-(7-Chloro-quinolin-4-yloxy)-2-[1-(1-propyl-cyclopropanesulfonylaminocarbonyl)-2-vinyl-cyclopropylcarbamoyl]-pyrrolidine-1-carbonyl}-2,2-dimethyl-propyl)-carbamic acid cyclopentyl ester], in assay [1], the IC50 was less than 50 nM. The EC50 in assay [2] lay in the range of 50 to 500 nM.
For the compound `C=C[C@@H]1C[C@]1(NC(=O)[C@@H]1C[C@@H](Oc2ccnc3cc(Cl)ccc23)CN1C(=O)[C@@H](NC(=O)OC1CCCC1)C(C)(C)C)C(=O)NS(=O)(=O)C1(CCCC)CC1` [Compound 65, {1-[2-[1-(1-Butyl-cyclopropanesulfonylaminocarbonyl)-2-vinyl-cyclopropylcarbamoyl]-4-(7-chloro-quinolin-4-yloxy)-pyrrolidine-1-carbonyl]-2,2-dimethyl-propyl}-carbamic acid cyclopentyl ester], the IC50 in assay [1] is less than 50 nM. Also, the EC50 in assay [2] fell in the range of 50 to 500 nM.

By IC50 is commonly meant the point on the concentration scale where inhibition reaches its midpoint. Usually EC50 stands for the concentration that produces a half-maximal response.

These data come from US6878722B2, “Substituted cycloalkyl P1′ hepatitis C virus inhibitors” (Bristol-Myers Squibb Company, priority 2002, dated 2005).
